“Also recorded” adds a separate entry of the source.
What was measured:
[1] = Pharmacokinetic evaluation, plasma and brain concentrations; type: in vivo, ICR mice
Excerpt: Distribution of a medicament in the body is one of the important indicators to determine the dose and efficacy of the medicament. Thus, excellent candidate compounds should have good pharmacokinetic characteristics. In addition, since the compound of the present invention is intended to be used for the treatment of Alzheimer's disease, which is a disease of the central nervous system, the distribution pattern of the compound in the brain and the blood is also one of the subjects to be investigated. In this experiment, compound 50561 was administered to mice […] or by gavage, and the concentrations of the compound in blood and brain were measured at specific time points to determine the pharmacokinetic parameters.
Forty-eight male ICR mice purchased from Shanghai Sippr-BK Lab. Animal Co. Ltd were used in this experiment. The oral group was fasted for 10-14 hours before administration, and feeding was restored 4 hours after administration. Samples were collected from the intravenous administration group 0.083 h, 0.25 h, 0.5 h, 1 h, 2 h, 4 h, 8 h, and 24 h after administration, respectively; while for the oral administration group, about 0.5 mL of blood was collected from the heart 0.25 h, 0.5 h, 1 h, 2 h, 4 h, 6 h, 8 h, and 24 h after administration, respectively. Heparin sodium was used for anticoagulation. Blood samples were collected and placed on ice, and plasma was separated by centrifugation (centrifugation conditions: 8000 rpm, 6 minutes, 4C). The collected plasma was stored at −80° C. before analysis. After collecting plasma samples, brain tissues were collected, washed with normal saline, water-absorbed by filter paper, weighed immediately, and then placed in labeled tubes (one tube for one brain tissue). The samples to be tested were temporarily placed on ice before being stored in a −80° C. refrigerator.
The analysis methods of biological samples and the analysis of all samples were done by Medicilon Pharmaceutical Technology (Shanghai) Co., Ltd. The intraday accuracy evaluation of the quality control samples was carried out while analyzing the samples, and the accuracy of over 66.7% of the quality control samples was required to be between 80-120%.
When calculating the pharmacokinetic parameters, the BLQ before Cmax (including “No peak”) was calculated as 0; BLQ occurring after Cmax (including “No peak”) was not involved in the calculation. WinNonlin Professional V 5.2 (Pharsight, USA) was adopted to calculate the following pharmacokinetic parameters: AUC(0-t), AUC(0-∞), T1/2, MRT(0-∞), Cmax, and Tmax. The tissue/plasma ratio was to be calculated by the following formula based on the blood concentration data at different time points: Tissue/plasma ratio (mL/g)=tissue blood concentration/plasma blood concentration.

[2] = system: Salmonella typhimurium TA100; assay: Mini Ames experiment, strain TA100; type: cell-based; conditions: TA100, regardless of the presence or absence of S9
Experimental: Histidine auxotrophic strains of Salmonella typhimurium were cultured in a special medium with quite a low content of histidine. The strains were difficult to divide due to lack of nutrition. If a test compound has mutagenicity, a large number of cells will undergo reverse mutation, synthesizing histidine by themselves and developing into colonies visible to the naked eye. In view of the close relationship between mutagenicity and carcinogenesis of chemicals, this method has been widely used in screening carcinogens. Some chemicals need metabolic activation to induce mutagenicity. Mammalian microsomal enzyme S9 can be added into the test system to eliminate the influence of metabolic activation on generation of mutagenicity.
[…] Mini Ames test with compound 50561

O=C1C=C(OCc2ccc(F)cc2)[C@H](Cc2ccccc2)N1 [Compound 50561]
Brain/plasma ratio ([1]; IV 1 mg/kg, 0.083 hr, G1-1): 2.604 mL/G | Brain/plasma ratio ([1]; IV 1 mg/kg, 0.083 hr, G1-2): 2.645 mL/G | Brain/plasma ratio ([1]; IV 1 mg/kg, 0.083 hr, G1-3): 2.249 mL/G | Brain/plasma ratio ([1]; IV 1 mg/kg, 0.083 hr, Mean): 2.499 mL/G | Brain/plasma ratio ([1]; IV 1 mg/kg, 0.25 hr, G1-1): 2.451 mL/G | Brain/plasma ratio ([1]; IV 1 mg/kg, 0.25 hr, G1-2): 2.415 mL/G | Brain/plasma ratio ([1]; IV 1 mg/kg, 0.25 hr, G1-3): 2.159 mL/G | Brain/plasma ratio ([1]; IV 1 mg/kg, 0.25 hr, Mean): 2.342 mL/G | Brain/plasma ratio ([1]; IV 1 mg/kg, 0.5 hr, G1-1): 2.540 mL/G | Brain/plasma ratio ([1]; IV 1 mg/kg, 0.5 hr, G1-2): 2.564 mL/G | Brain/plasma ratio ([1]; IV 1 mg/kg, 0.5 hr, G1-3): 2.361 mL/G | Brain/plasma ratio ([1]; IV 1 mg/kg, 0.5 hr, Mean): 2.488 mL/G | Brain/plasma ratio ([1]; IV 1 mg/kg, 1 hr, G1-1): 2.330 mL/G | Brain/plasma ratio ([1]; IV 1 mg/kg, 1 hr, G1-2): 3.941 mL/G | Brain/plasma ratio ([1]; IV 1 mg/kg, 1 hr, G1-3): 2.751 mL/G | Brain/plasma ratio ([1]; IV 1 mg/kg, 1 hr, Mean): 3.007 mL/G | Blood concentration ([1]; IV 1 mg/kg, 2 hr, G1-1): BLQ | Brain tissue concentration ([1]; IV 1 mg/kg, 2 hr, G1-1): BLQ | Blood concentration ([1]; IV 1 mg/kg, 2 hr, G1-2): BLQ | Brain tissue concentration ([1]; IV 1 mg/kg, 2 hr, G1-2): BLQ | Blood concentration ([1]; IV 1 mg/kg, 2 hr, G1-3): BLQ | Brain tissue concentration ([1]; IV 1 mg/kg, 2 hr, G1-3): BLQ | Blood concentration ([1]; IV 1 mg/kg, 4 hr, G1-1): BLQ | Brain tissue concentration ([1]; IV 1 mg/kg, 4 hr, G1-1): BLQ | Blood concentration ([1]; IV 1 mg/kg, 4 hr, G1-2): BLQ | Brain tissue concentration ([1]; IV 1 mg/kg, 4 hr, G1-2): BLQ | Blood concentration ([1]; IV 1 mg/kg, 4 hr, G1-3): BLQ | Brain tissue concentration ([1]; IV 1 mg/kg, 4 hr, G1-3): BLQ | Blood concentration ([1]; IV 1 mg/kg, 8 hr, G1-1): BLQ | Brain tissue concentration ([1]; IV 1 mg/kg, 8 hr, G1-1): BLQ | Blood concentration ([1]; IV 1 mg/kg, 8 hr, G1-2): BLQ | Brain tissue concentration ([1]; IV 1 mg/kg, 8 hr, G1-2): BLQ | Blood concentration ([1]; IV 1 mg/kg, 8 hr, G1-3): BLQ | Brain tissue concentration ([1]; IV 1 mg/kg, 8 hr, G1-3): BLQ | Blood concentration ([1]; IV 1 mg/kg, 24 hr, G1-1): BLQ | Brain tissue concentration ([1]; IV 1 mg/kg, 24 hr, G1-1): BLQ | Blood concentration ([1]; IV 1 mg/kg, 24 hr, G1-2): BLQ | Brain tissue concentration ([1]; IV 1 mg/kg, 24 hr, G1-2): BLQ | Blood concentration ([1]; IV 1 mg/kg, 24 hr, G1-3): BLQ | Brain tissue concentration ([1]; IV 1 mg/kg, 24 hr, G1-3): BLQ | Brain/plasma ratio ([1]; PO 10 mg/kg, 0.25 hr, G2-1): 1.948 mL/G | Brain/plasma ratio ([1]; PO 10 mg/kg, 0.25 hr, G2-2): 1.590 mL/G | Brain/plasma ratio ([1]; PO 10 mg/kg, 0.25 hr, G2-3): 2.093 mL/G | Brain/plasma ratio ([1]; PO 10 mg/kg, 0.25 hr, Mean): 1.877 mL/G | Brain/plasma ratio ([1]; PO 10 mg/kg, 0.5 hr, G2-1): 2.435 mL/G | Brain/plasma ratio ([1]; PO 10 mg/kg, 0.5 hr, G2-2): 2.027 mL/G | Brain/plasma ratio ([1]; PO 10 mg/kg, 0.5 hr, G2-3): 1.980 mL/G | Brain/plasma ratio ([1]; PO 10 mg/kg, 0.5 hr, Mean): 2.147 mL/G | Brain/plasma ratio ([1]; PO 10 mg/kg, 1 hr, G2-1): 2.485 mL/G | Brain/plasma ratio ([1]; PO 10 mg/kg, 1 hr, G2-2): 2.152 mL/G | Brain/plasma ratio ([1]; PO 10 mg/kg, 1 hr, G2-3): 2.158 mL/G | Brain/plasma ratio ([1]; PO 10 mg/kg, 1 hr, Mean): 2.265 mL/G | Brain/plasma ratio ([1]; PO 10 mg/kg, 2 hr, G2-1): 2.163 mL/G | Brain/plasma ratio ([1]; PO 10 mg/kg, 2 hr, G2-2): 2.454 mL/G | Brain/plasma ratio ([1]; PO 10 mg/kg, 2 hr, G2-3): 2.372 mL/G | Brain/plasma ratio ([1]; PO 10 mg/kg, 2 hr, Mean): 2.329 mL/G | Brain/plasma ratio ([1]; PO 10 mg/kg, 4 hr, G2-1): 2.373 mL/G | Brain/plasma ratio ([1]; PO 10 mg/kg, 4 hr, G2-2): 2.428 mL/G | Brain/plasma ratio ([1]; PO 10 mg/kg, 4 hr, G2-3): 1.355 mL/G | Brain/plasma ratio ([1]; PO 10 mg/kg, 4 hr, Mean): 2.052 mL/G | Brain/plasma ratio ([1]; PO 10 mg/kg, 6 hr, G2-1): 1.839 mL/G | Brain/plasma ratio ([1]; PO 10 mg/kg, 6 hr, G2-2): 2.764 mL/G | Brain/plasma ratio ([1]; PO 10 mg/kg, 6 hr, G2-3): 2.929 mL/G | Brain/plasma ratio ([1]; PO 10 mg/kg, 6 hr, Mean): 2.511 mL/G | Brain/plasma ratio ([1]; PO 10 mg/kg, 8 hr, G2-1): 1.575 mL/G | Brain/plasma ratio ([1]; PO 10 mg/kg, 8 hr, G2-2): 2.443 mL/G | Brain tissue concentration ([1]; PO 10 mg/kg, 8 hr, G2-3): BLQ | Brain/plasma ratio ([1]; PO 10 mg/kg, 8 hr, Mean): 2.009 mL/G | Blood concentration ([1]; PO 10 mg/kg, 24 hr, G2-1): BLQ | Brain tissue concentration ([1]; PO 10 mg/kg, 24 hr, G2-1): BLQ | Blood concentration ([1]; PO 10 mg/kg, 24 hr, G2-2): BLQ | Brain tissue concentration ([1]; PO 10 mg/kg, 24 hr, G2-2): BLQ | Blood concentration ([1]; PO 10 mg/kg, 24 hr, G2-3): BLQ | Brain tissue concentration ([1]; PO 10 mg/kg, 24 hr, G2-3): BLQ | blood-brain barrier permeability (content in brain tissue versus blood) ([1]; after intravenous injection and oral administration): good blood-brain barrier permeability | concentration at 0.083 h ([1]; male, ICR, mouse, brain, IV 1 mg/kg, 0.083 hr, G1-3, read-out: Brain tissue concentration): 977 ng/g | change in the number of colonies / mutagenicity [2]: did not cause more than twice of a change in the number of colonies; also recorded: no obvious mutagenicity

Reference: US11332440B2, “4-oxo-alkylated tetramic acid compound, and preparation method thereof” (priority 2017, dated 2022)
